Tests used:
His-AKT (Full Length) = His-AKT (Full Length) (Homo sapiens (Human), UniProt P31749); test: AKT/PKB kinase assay; assay type: biochemical
Method: In order to measure AKT inhibition in the Caliper Life Sciences LC3000, a TTP Mosquito liquid handling instrument was used to place 125 nl of the appropriate concentration of inhibitor in 100% DMSO (for a dose response curve calculation) into each well of a 384-well plate. To this reaction, the following components were added to a final volume of 12.5 μl: • 0.1 ng/μl His-AKT (Full Length) (Invitrogen, Part # P2999, Lot #641228C); • 160 μM ATP (Fluka, 02055); • 1 mM DTT (Sigma, D0632); • 1 mM MgCl2 (Sigma, M1028); • 1 μM substrate peptide (sequence FITC-AHA-[…]-NH2), synthesized by • Tufts Peptide Synthesis service; • 100 mM HEPES pH 7.5 (Calbiochem, 391338); and • 0.015% Brij-35 (Sigma, B4184).
The reaction was incubated for 90 min at 25° C., and then stopped by the addition of 70 μl of Stop buffer (100 mM HEPES pH 7.5, 0.015% Brij-35, 10 mM EDTA (Sigma, E7889)). The plate was read on a Caliper LC 3000 in an Off-Chip mobility shift assay format, using the following parameters for a 12-sipper chip: screening pressure −2.3 psi, upstream voltage −500, and downstream voltage −3000. These conditions cause unphosphorylated substrate and phosphorylated product peptide to resolve as separate peaks allowing direct measurement of percentage of conversion of substrate to product. The percent conversion was plotted against concentration of inhibitor to produce a sigmoidal dose response curve, from which an IC50 was calculated.

p70S6K (T412E mutant) = p70S6K (T412E mutant) (Homo sapiens (Human), UniProt P23443, T412E); test: p70S6K enzyme assay; assay type: biochemical
p70S6K (T412E mutant), sequence (P23443 whole entry T412E): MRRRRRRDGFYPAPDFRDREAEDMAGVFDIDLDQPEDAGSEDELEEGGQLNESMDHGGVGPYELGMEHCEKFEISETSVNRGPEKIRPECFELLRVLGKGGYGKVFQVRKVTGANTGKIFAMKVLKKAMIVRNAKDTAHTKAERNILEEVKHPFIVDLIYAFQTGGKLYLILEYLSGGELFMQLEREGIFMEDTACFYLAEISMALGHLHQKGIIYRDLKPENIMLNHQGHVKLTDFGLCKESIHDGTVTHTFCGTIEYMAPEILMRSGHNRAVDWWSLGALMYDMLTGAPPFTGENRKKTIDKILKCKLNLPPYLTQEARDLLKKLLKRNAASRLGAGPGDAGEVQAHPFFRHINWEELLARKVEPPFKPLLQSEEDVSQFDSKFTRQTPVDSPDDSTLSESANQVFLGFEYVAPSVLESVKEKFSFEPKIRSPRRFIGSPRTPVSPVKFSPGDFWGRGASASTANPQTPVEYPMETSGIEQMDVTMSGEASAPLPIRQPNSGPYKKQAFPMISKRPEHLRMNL
Method: p70S6K inhibitor compounds were diluted and plated in 96 well plates. A reaction mixture including the following components were then added to the compound plate to initiate the enzyme reaction: p70S6K (3 nM, T412E mutant, Millipore) was mixed with 24 μM ATP in an assay buffer containing 100 mM Hepes (pH 7.5), 5 mM MgCl2, 1 mM DTT, 0.015% Brij and 1 μM of the substrate peptide FITC-AHA-[…]-OH (derived from the S6 ribosomal protein sequence, FITC=fluorescein isothiocyanate, AHA=6-aminohexanoic acid). The reaction was incubated for 90 min at 25° C., before the addition of 10 mM EDTA to stop the reaction. The proportion of substrate and product (phosphorylated) peptide was analyzed on a Caliper Life Sciences Lab Chip 3000, using a pressure of −1.4 psi, and upstream and downstream voltages of −3000 and −700, respectively. Product peaks were resolved before substrate peaks on the resulting chromatograms. To assess the inhibitory potential of the compounds, IC50 values were determined, as shown above.

[1] = 160 μM ATP, 90 min at 25° C., Caliper mobility shift
[2] = 24 μM ATP, 90 min at 25° C., Caliper mobility shift
[3] = value printed in the synthesis paragraph

His-AKT (Full Length), sequence (P31749 whole entry): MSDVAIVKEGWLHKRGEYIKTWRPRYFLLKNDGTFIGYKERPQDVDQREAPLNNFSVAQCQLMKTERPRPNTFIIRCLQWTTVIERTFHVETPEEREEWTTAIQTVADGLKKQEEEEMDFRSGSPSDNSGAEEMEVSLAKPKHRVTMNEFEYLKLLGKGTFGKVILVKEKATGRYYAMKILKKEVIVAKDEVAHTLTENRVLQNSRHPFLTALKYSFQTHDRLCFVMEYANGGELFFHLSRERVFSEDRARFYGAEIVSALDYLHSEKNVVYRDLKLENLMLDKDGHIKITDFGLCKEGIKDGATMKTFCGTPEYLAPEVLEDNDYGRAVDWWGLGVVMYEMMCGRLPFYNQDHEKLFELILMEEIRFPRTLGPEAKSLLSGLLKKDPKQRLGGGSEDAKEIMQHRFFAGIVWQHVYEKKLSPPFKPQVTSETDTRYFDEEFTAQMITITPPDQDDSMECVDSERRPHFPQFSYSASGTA

IC50 (His-AKT (Full Length); [1]) | IC50 (p70S6K (T412E mutant); [2]) | Compound | IC50 (His-AKT (Full Length); [3]) | IC50 (p70S6K (T412E mutant); [3])
101 to 500 nM | < 25 nM | NC(=O)c1ccnc2c(N[C@H](CN3CCC3)c3ccc(Cl)cc3)ncnc12 [Compound 36, 4-[(S)-2-Azetidin-1-yl-1-(4-chloro-phenyl)-ethylamino]-pyrido[3,2-d]pyrimidine-8-carboxylic Acid Amide] | – | –
25 to 100 nM | < 25 nM | CNC[C@@H](Nc1ncnc2c(C(N)=O)ccnc12)c1ccc(C(F)(F)F)cc1 [Compound 38, 4-[(S)-2-Methylamino-1-(4-trifluoromethyl-phenyl)-ethylamino]-pyrido[3,2-d]pyrimidine-8-carboxylic Acid Amide] | – | –
< 25 nM | < 25 nM | CNC[C@@H](Nc1ncnc2c(C(N)=O)ccnc12)c1ccc(F)c(C(F)F)c1 [Compound 51, 4-[(S)-1-(3-Difluoromethyl-4-fluoro-phenyl)-2-methylamino-ethylamino]-pyrido[3,2-d]pyrimidine-8-carboxylic Acid Amide] | – | –
25 to 100 nM | < 25 nM | NC(=O)c1ccnc2c(N[C@H](CN3CC(O)C3)c3ccc(Cl)c(C(F)(F)F)c3)ncnc12 [Compound 70, 4-[(S)-1-(4-Chloro-3-trifluoromethyl-phenyl)-2-(3-hydroxy-azetidin-1-yl)-ethylamino]-pyrido[3,2-d]pyrimidine-8-carboxylic Acid Amide] | – | –
< 25 nM | < 25 nM | CNC[C@@H](Nc1ncnc2c(C(N)=O)ccnc12)c1ccc(Cl)c(Cl)c1 [Compound 75, 4-[(S)-1-(3,4-Dichloro-phenyl)-2-methylamino-ethylamino]-pyrido[3,2-d]pyrimidine-8-carboxylamide] | – | –
101 to 500 nM | < 25 nM | NC(=O)c1cccc2c(NC3CNCCC3c3ccc(C(F)(F)F)cc3)nnnc12 (centres unmarked) [Compound 22, 4-((4-(4-(trifluoromethyl)phenyl)piperidin-3-yl)amino)benzo[d][1,2,3]triazine-8-carboxamide] | – | –
> 1000 nM | 501 to 1000 nM | NC(=O)c1cccc2c(NCc3cccc(F)c3)nnnc12 [Compound 9, 4-((3-fluorobenzyl)amino)benzo[d][1,2,3]triazine-8-carboxamide] | – | –
25 to 100 nM | – | CN(C)C[C@@H](Nc1ncnc2c(C(N)=O)ccnc12)c1ccc(Cl)c(F)c1 [Compound 53, 4-[(S)-1-(4-Chloro-3-fluoro-phenyl)-2-dimethylamino-ethylamino]-pyrido[3,2-d]pyrimidine-8-carboxylic Acid Amide] | – | –
> 1000 nM | 25 to 100 nM | CNC[C@@H](Nc1ncnc2c(C(N)=O)nccc12)c1ccc(C(C)C)cc1 [Compound 40, 4-[(S)-1-(4-Isopropyl-phenyl)-2-methylamino-ethylamino]-pyrido[3,4-d]pyrimidine-8-carboxylic Acid Amide] | – | –
101 to 500 nM | < 25 nM | CNC[C@@H](Nc1ncnc2c(C(N)=O)ccnc12)c1cc(F)c(OC)cc1F [Compound 32, 4-[(S)-1-(2,5-Difluoro-4-methoxy-phenyl)-2-methylamino-ethylamino]-pyrido[3,2-d]pyrimidine-8-carboxylic Acid Amide] | – | –
101 to 500 nM | 25 to 100 nM | CC(C)NC[C@@H](Nc1ncnc2c(C(N)=O)ccnc12)c1ccc(Cl)c(F)c1 [Compound 54, 4-[(S)-1-(4-Chloro-3-fluoro-phenyl)-2-isopropylamino-ethylamino]-pyrido[3,2-d]pyrimidine-8-carboxylic Acid Amide] | – | –
> 1000 nM | 501 to 1000 nM | NC(=O)c1cccc2c(NCc3ccccc3)nnnc12 [Compound 6, 4-(benzylamino)benzo[d][1,2,3]triazine-8-carboxamide] | – | –
< 25 nM | < 25 nM | CNC[C@@H](Nc1ncnc2c(C(N)=O)ccnc12)c1ccc(Cl)c(C(F)(F)F)c1 [Compound 72, 4-[(S)-1-(4-Chloro-3-trifluoromethyl-phenyl)-2-methylamino-ethylamino]-pyrido[3,2-d]pyrimidine-8-carboxylic Acid Amide] | – | –
< 25 nM | < 25 nM | CNC[C@@H](Nc1ncnc2c(C(N)=O)ccnc12)c1cccc(F)c1 [Compound 66, 4-[(S)-1-(3-Fluoro-phenyl)-2-methylamino-ethylamino]-pyrido[3,2-d]pyrimidine-8-carboxylic Acid Amide] | – | –
< 25 nM | < 25 nM | CNC[C@@H](Nc1ncnc2c(C(N)=O)nccc12)c1ccc(Cl)c(C(F)(F)F)c1 [Compound 42, 4-[(S)-1-(4-Chloro-3-trifluoromethyl-phenyl)-2-methylamino-ethylamino]-pyrido[3,4-d]pyrimidine-8-carboxylic Acid Amide] | – | –
101 to 500 nM | < 25 nM | N#Cc1cc([C@@H](CN2CCC2)Nc2nnnc3c(C(N)=O)cccc23)ccc1Cl [Compound 18, (S)-4-((2-(azetidin-1-yl)-1-(4-chloro-3-cyanophenyl)ethyl)amino)benzo[d][1,2,3]triazine-8-carboxamide] | – | –
501 to 1000 nM | < 25 nM | CC(C)c1ccc([C@@H](CN2CCC2)Nc2ncnc3c(C(N)=O)ccnc23)cc1 [Compound 37, 4-[(S)-2-Azetidin-1-yl-1-(4-isopropyl-phenyl)-ethylamino]-pyrido[3,2-d]pyrimidine-8-carboxylic Acid Amide] | – | –
< 25 nM | < 25 nM | CNC[C@@H](Nc1ncnc2c(C(N)=O)ccnc12)c1ccc(F)c(C)c1 [Compound 67, 4-[(S)-1-(4-Fluoro-3-methyl-phenyl)-2-methylamino-ethylamino]-pyrido[3,2-d]pyrimidine-8-carboxylic Acid Amide] | – | –
101 to 500 nM | 25 to 100 nM | CCNC[C@@H](Nc1ncnc2c(C(N)=O)ccnc12)c1cc(F)c(F)cc1F [Compound 58, 4-[(S)-2-Ethylamino-1-(2,4,5-trifluoro-phenyl)-ethylamino]-pyrido[3,2-d]pyrimidine-8-carboxylic Acid Amide] | – | –
< 25 nM | < 25 nM | NC(=O)c1cccc2c(N[C@H](CN3CCC3)c3ccc(Cl)c(C(F)(F)F)c3)nnnc12 [Compound 14, (S)-4-((2-(azetidin-1-yl)-1-(4-chloro-3-(trifluoromethyl)phenyl)ethyl)amino)benzo[d][1,2,3]triazine-8-carboxamide] | – | –
101 to 500 nM | 25 to 100 nM | COc1cc([C@@H](CN(C)C)Nc2nnnc3c(C(N)=O)cccc23)ccc1Cl [Compound 11, (S)-4-((1-(4-chloro-3-methoxyphenyl)-2-(dimethylamino)ethyl)amino)-benzo[d][1,2,3]triazine-8-carboxamide] | – | –
25 to 100 nM | < 25 nM | NC(=O)c1ccnc2c(N[C@H](CN3CCC3)c3cccc(F)c3)ncnc12 [Compound 68, 4-[(S)-2-Azetidin-1-yl-1-(3-fluoro-phenyl)-ethylamino]-pyrido[3,2-d]pyrimidine-8-carboxylic Acid Amide] | – | –
> 1000 nM | > 1000 nM | NC(=O)c1cccc2c(NCc3cccnc3)nnnc12 [Compound 3, 4-((pyridin-3-ylmethyl)amino)benzo[d][1,2,3]triazine-8-carboxamide] | – | –
< 25 nM | < 25 nM | NC(=O)c1cccc2c(N[C@H](CN3CCC3)c3ccc(F)c(C(F)(F)F)c3)nnnc12 [Compound 12, (S)-4-((2-(azetidin-1-yl)-1-(4-fluoro-3-(trifluoromethyl)phenyl)ethyl)amino)benzo[d][1,2,3]triazine-8-carboxamide] | – | –
25 to 100 nM | – | CCNC[C@@H](Nc1ncnc2c(C(N)=O)ccnc12)c1ccc(F)c(Cl)c1 [Compound 61, 4-[(S)-1-(3-Chloro-4-fluoro-phenyl)-2-ethylamino-ethylamino]-pyrido[3,2-d]pyrimidine-8-carboxylic Acid Amide] | – | –
25 to 100 nM | – | CCNC[C@@H](Nc1ncnc2c(C(N)=O)ccnc12)c1ccc(F)c(Br)c1 [Compound 30, 4-[(S)-1-(3-Bromo-4-fluoro-phenyl)-2-ethylamino-ethylamino]-pyrido[3,2-d]pyrimidine-8-carboxylic Acid Amide] | – | –

Compound | IC50 (His-AKT (Full Length); [1]) | IC50 (p70S6K (T412E mutant); [2]) | IC50 (His-AKT (Full Length); [3]) | IC50 (p70S6K (T412E mutant); [3])
NC(=O)c1ccnc2c(N[C@H](CN3CCC3)c3ccc(Cl)c(C(F)(F)F)c3)ncnc12 [Compound 41, 4-[(S)-2-Azetidin-1-yl-1-(4-chloro-3-trifluoromethyl-phenyl)-ethylamino]-pyrido[3,2-d]pyrimidine-8-carboxamide] | < 25 nM | < 25 nM | 11 nM | 1.6 nM

Source: patent publication US9981925B2, “Substituted benzo[d][1,2,3]triazines as p70S6K inhibitors” (Merck Patent GmbH, priority 2012, dated 2018)
